Results as given in patent US20240287138A1, “CYCLIC PEPTIDES FOR INHIBITING TNF RECEPTOR 1 ACTIVITY” (Merck Sharp & Dohme LLC, priority 2023, published 2024).
Numbered stars: 1 amine (or outer) side, 2 acyl side, 3 side chain; on linkers, the order of the positions; unused ones are H or OH. Bridge positions count the residues as written; N and C are the ends. Square brackets hold non-standard residues; d marks the D form. Peptide text beside a SMILES is read from it. Trp(βS-Me,7-OMe) = COc1cccc2c([C@H](C)[C@H](N)C(=O)O)c[nH]c12; Trp(7-Cl) = N[C@@H](Cc1c[nH]c2c(Cl)cccc12)C(=O)O; Ala(pyrimidin-5-yl) = N[C@@H](Cc1cncnc1)C(=O)O; Phe(3-COOH) = N[C@@H](Cc1cccc(C(=O)O)c1)C(=O)O; Phe(4-CONH2) = NC(=O)c1ccc(C[C@H](N)C(=O)O)cc1; Phe(4-COOH) = N[C@@H](Cc1ccc(C(=O)O)cc1)C(=O)O; Trp(7-aza) = N[C@@H](Cc1c[nH]c2ncccc12)C(=O)O; X18 = O=C([C@@H]1C=C[C@H](N[*:1])C1)[*:2]; X1 = O=C([C@@H]1CC[C@H](N[*:1])C1)[*:2]; Val(3-OH) = CC(C)(O)[C@H](N)C(=O)O; Pip(4-aza) = O=C(O)[C@@H]1CNCCN1; 4Pal = N[C@@H](Cc1ccncc1)C(=O)O; NMeE = CN[C@@H](CCC(=O)O)C(=O)O; hSer = N[C@@H](CCO)C(=O)O; αMeS = C[C@](N)(CO)C(=O)O; Nle = CCCC[C@H](N)C(=O)O; Sar = CNCC(=O)O

Legend:
[1] = molecular target: T1, human soluble TNFR1 (sTNFR1) (Homo sapiens, UniProt P19438); test: Human sTNFR1-peptide displacement assay (LanthaScreen Eu TR-FRET binding assay)
T1 construct: made in house; host or cells: Sf21 (baculovirus)
T1 sequence (P19438 with tags, fused parts or gaps): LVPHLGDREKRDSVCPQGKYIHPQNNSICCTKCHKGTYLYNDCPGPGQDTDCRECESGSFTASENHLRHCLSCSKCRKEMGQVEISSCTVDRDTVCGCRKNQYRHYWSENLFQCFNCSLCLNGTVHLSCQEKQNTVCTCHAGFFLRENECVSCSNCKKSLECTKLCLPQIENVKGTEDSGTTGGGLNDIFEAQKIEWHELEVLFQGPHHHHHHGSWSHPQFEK
Outline: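 Readout is the 665/615 nm TR-FRET ratio (Eu anti-His donor, streptavidin-Alexa647 acceptor), normalized to DMSO and saturating displacer, fit by Morrison-based five-parameter logistic for Kd^app. His-tagged sTNFR1 (1-211) prebound to 100 nM biotinylated peptide SEQ ID NO.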

[2] = molecular target: T2, TNFα-induced NF-κB signal transduction pathway (TNFR1 signaling) in THP-1 cells (Homo sapiens, UniProt P19438); test: THP-1 Lucia NF-κB reporter cell assay, inhibition of TNFα-induced NF-κB signaling; format: cell-based; details: THP-1 NF-κB Lucia reporter cells, 10 ng/mL TNFα, 16-18 h, secreted luciferase; read-out: THP-1 IC50
T2 sequence (P19438 30-455): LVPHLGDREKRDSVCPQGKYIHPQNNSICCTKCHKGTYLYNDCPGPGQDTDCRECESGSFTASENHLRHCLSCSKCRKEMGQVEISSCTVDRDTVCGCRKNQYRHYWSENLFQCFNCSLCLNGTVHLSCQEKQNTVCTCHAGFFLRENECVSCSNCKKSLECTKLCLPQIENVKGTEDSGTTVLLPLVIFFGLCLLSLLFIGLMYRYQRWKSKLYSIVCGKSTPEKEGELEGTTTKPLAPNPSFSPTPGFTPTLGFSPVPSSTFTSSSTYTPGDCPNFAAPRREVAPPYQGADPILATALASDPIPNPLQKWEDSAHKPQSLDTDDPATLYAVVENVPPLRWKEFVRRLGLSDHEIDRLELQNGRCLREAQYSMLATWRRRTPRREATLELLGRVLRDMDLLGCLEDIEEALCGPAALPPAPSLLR
Outline: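 Read-out: secreted Lucia luciferase luminescence (QUANTI-Luc) from supernatant after 16-18 h, 37 °C, 10 ng/mL rhTNFα. Peptide pretreatment 1 h at 37 °C; 20,000 cells/well, selection antibiotics omitted. IC50 via 4-parameter logistic model against min/max controls.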

| SMILES | Kd [1] | IC50 [2] | IC50 [1] |
| --- | --- | --- | --- |
| CCCC[C@@H]1NC(=O)CSC[C@@H](C(N)=O)NC(=O)[C@H]([C@@H](C)c2c[nH]c3c(OC)cccc23)NC(=O)CN(C)C(=O)[C@H](Cc2ccc(O)cc2)NC(=O)[C@H](Cc2ccc(C(=O)O)cc2)NC(=O)[C@](C)(CO)NC(=O)[C@H](Cc2c[nH]c3c(Cl)cccc23)NC(=O)[C@H](Cc2ccncc2)NC(=O)[C@H](CC(N)=O)NC(=O)[C@H](CCC(=O)O)N(C)C(=O)[C@H](Cc2c[nH]c3ncccc23)NC(=O)[C@H](C(C)(C)O)NC(=O)[C@H](Cc2cncnc2)NC1=O [SEQ ID NO. 177] ({CH2CO}-[Nle][Ala(pyrimidin-5-yl)][Val(3-OH)][Trp(7-aza)][NMeE]N[4Pal][Trp(7-Cl)][αMeS][Phe(4-COOH)]Y[Sar][Trp(βS-Me,7-OMe)]C-NH2; thioether N-14) | 0.54 nM | 3.3 nM | – |
| CCCC[C@@H]1NC(=O)[C@@H]2CC[C@@H](C2)NC(=O)[C@H]([C@@H](C)c2c[nH]c3c(OC)cccc23)NC(=O)CN(C)C(=O)[C@H](Cc2c[nH]cn2)NC(=O)[C@H](Cc2ccc(C(=O)O)cc2)NC(=O)[C@](C)(CO)NC(=O)[C@H](Cc2c[nH]c3c(Cl)cccc23)NC(=O)[C@H](Cc2ccncc2)NC(=O)[C@H](CC(N)=O)NC(=O)[C@H](CCC(=O)O)N(C)C(=O)[C@H](Cc2c[nH]c3ccccc23)NC(=O)[C@@H]2CNCCN2C(=O)[C@H](Cc2ccncc2)NC1=O [SEQ ID NO. 178] (cyclo([4Pal][Trp(7-Cl)][αMeS][Phe(4-COOH)]H[Sar][Trp(βS-Me,7-OMe)][X1][Nle][4Pal][Pip(4-aza)]W[NMeE]N)) | 0.29 nM | 3.3 nM | – |
| CCCC[C@@H]1NC(=O)[C@@H]2CC[C@@H](C2)NC(=O)[C@H]([C@@H](C)c2c[nH]c3c(OC)cccc23)NC(=O)CN(C)C(=O)[C@H](Cc2ccc(O)cc2)NC(=O)[C@H](Cc2ccc(C(=O)O)cc2)NC(=O)[C@](C)(CO)NC(=O)[C@H](Cc2c[nH]c3c(Cl)cccc23)NC(=O)[C@H](Cc2ccncc2)NC(=O)[C@H](CCOC)NC(=O)[C@H](CCC(=O)O)N(C)C(=O)[C@H](Cc2c[nH]c3ccccc23)NC(=O)[C@@H]2CNCCN2C(=O)[C@H](Cc2ccncc2)NC1=O [SEQ ID NO. 181] (cyclo([4Pal][Trp(7-Cl)][αMeS][Phe(4-COOH)]Y[Sar][Trp(βS-Me,7-OMe)][X1][Nle][4Pal][Pip(4-aza)]W[NMeE][hSer](Me))) | 0.34 nM | 1.2 nM | – |
| CCCC[C@@H]1NC(=O)[C@@H]2C=C[C@@H](C2)NC(=O)[C@H]([C@@H](C)c2c[nH]c3c(OC)cccc23)NC(=O)CN(C)C(=O)[C@H](Cc2ccc(O)cc2)NC(=O)[C@H](Cc2ccc(C(=O)O)cc2)NC(=O)[C@](C)(CO)NC(=O)[C@H](Cc2c[nH]c3c(Cl)cccc23)NC(=O)[C@H](Cc2ccncc2)NC(=O)[C@H](CC(N)=O)NC(=O)[C@H](CCC(=O)O)N(C)C(=O)[C@H](Cc2c[nH]c3ccccc23)NC(=O)[C@@H]2CNCCN2C(=O)[C@H](Cc2ccncc2)NC1=O [SEQ ID NO. 182] (cyclo([4Pal][Trp(7-Cl)][αMeS][Phe(4-COOH)]Y[Sar][Trp(βS-Me,7-OMe)][X18][Nle][4Pal][Pip(4-aza)]W[NMeE]N)) | 0.2 nM | 0.9 nM | – |
| CCCC[C@@H]1NC(=O)CSC[C@@H](C(N)=O)NC(=O)[C@H]([C@@H](C)c2c[nH]c3c(OC)cccc23)NC(=O)CN(C)C(=O)[C@H](Cc2cccc(C(=O)O)c2)NC(=O)[C@H](Cc2ccc(C(N)=O)cc2)NC(=O)[C@](C)(CO)NC(=O)[C@H](Cc2c[nH]c3c(Cl)cccc23)NC(=O)[C@H](Cc2ccc(C(N)=O)cc2)NC(=O)[C@H](CC(N)=O)NC(=O)[C@H](CCC(=O)O)N(C)C(=O)[C@H](Cc2c[nH]c3ccccc23)NC(=O)[C@@H]2CNCCN2C(=O)[C@H](Cc2ccncc2)NC1=O [SEQ ID NO. 184] ({CH2CO}-[Nle][4Pal][Pip(4-aza)]W[NMeE]N[Phe(4-CONH2)][Trp(7-Cl)][αMeS][Phe(4-CONH2)][Phe(3-COOH)][Sar][Trp(βS-Me,7-OMe)]C-NH2; thioether N-14) | – | 1.7 nM | 0.5 nM |
